From patent publication US20140235444A1, “SYNERGISTIC SUPRESSION OF GRASS SEEDHEAD PRODUCTION FROM APPLICATIONS OF AMINOCYCLOPYRACHLOR AND METSULFURON” (Dow AgroSciences LLC, priority 2013, published 2014)

Test system: X fescue in a Kentucky blue grass mix
Test: Field trial, prevention or suppression of grass seedhead production, postemergence foliar application
Type: in vivo
Settings: 12 days after application, scale 0-100% vs untreated control
Description: Field trials were conducted with applications made to established pastures having X fescue in a Kentucky blue grass mix. The target plants were treated with postemergence foliar applications when they were approximately 6-10 inches tall. All treatments were applied using a randomized complete block trial design, with four replications per treatment.
Treatments consisted of aminocyclopyrachlor in acid form and metsulfuron-methyl, each in water and applied alone or in combination. Spray solutions were prepared using an appropriate amount of dilution to form a 1 liter (L) aqueous spray solution with active ingredients in single and two-way combinations. Formulated compounds were applied to the plant material with a backpack sprayer equipped with 8003 flat fan nozzles calibrated to deliver 20 gallons per acre (gal/acre) or 187 liters per hectare (L/ha) at a spray height of 15 inches (38.1 centimeters (cm)) above the grass.
The treated plots and control plots were rated blind at various intervals after application. […]
Colby's equation was used to determine the seedhead-suppressant effects expected from the mixtures, as described above. The results were measured at 12 days after the first application of the compositions. […]

Molecule	Mean % seedhead suppression (Aminocyclopyrachlor alone, 70 g ae/ha) [%]	Mean % seedhead suppression (Metsulfuron-Methyl alone, 13 g ae/ha) [%]
Nc1nc(C2CC2)nc(C(=O)O)c1Cl [Aminocyclopyrachlor, 6-amino-5-chloro-2-cyclopropylpyrimidine-4-carboxylic acid]	5.0	
Metsulfuron-Methyl		80.0
